{"source": "patent US10052340B2", "about": "(XIAMEN UNIVERSITY, priority 2012, dated 2018)", "key": {"human FXR": {"molecular_target": "T1, human FXR (Homo sapiens, UniProt Q96RI1)", "T1 construct": "expressed in transfected cells; host or cells: COS-7", "T1 sequence (Q96RI1 1-472 isoform Q96RI1-2)": "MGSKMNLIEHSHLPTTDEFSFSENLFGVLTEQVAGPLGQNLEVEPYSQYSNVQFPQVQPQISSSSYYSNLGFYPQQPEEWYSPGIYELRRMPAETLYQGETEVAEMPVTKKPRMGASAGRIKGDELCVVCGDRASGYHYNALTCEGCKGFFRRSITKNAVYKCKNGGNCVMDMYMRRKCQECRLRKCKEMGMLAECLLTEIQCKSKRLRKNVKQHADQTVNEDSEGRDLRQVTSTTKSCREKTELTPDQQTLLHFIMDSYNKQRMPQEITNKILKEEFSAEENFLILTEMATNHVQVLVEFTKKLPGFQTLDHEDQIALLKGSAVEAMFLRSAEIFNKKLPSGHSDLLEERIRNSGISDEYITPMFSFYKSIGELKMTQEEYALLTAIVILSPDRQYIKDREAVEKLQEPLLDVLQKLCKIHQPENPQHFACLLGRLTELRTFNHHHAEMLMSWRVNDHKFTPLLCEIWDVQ", "assay": "Reporter gene analysis, COS-7 cells cotransfected with full-length FXR and EcRE-Luc", "format": "cell-based", "details": "0.5 μM, COS-7, EcRE reporter, FIG. 2", "description": "DMEM medium containing 10% fetal bovine serum is used to perform the culture of monkey kidney epithelial cell COS-7 cells, and COS-7 cells are inoculated onto a 24-well plate on the day before transfection with an inoculation density of 5×10^4 cells/well, and transfected on the next day. The transfection is the transient transfection performed using Lipofectamine 2000 (Invitrogen). In the reporter gene analysis experiment, 200 ng of a nuclear receptor full-length expression plasmid or the expression plasmid of the mutant thereof, 200 ng of endogenous promoter reporter gene, and 30 ng of Renilla luciferase expression plasmid are used for cotransfection. 500 μl Opti-MEM is added to each well and cultured for 5 h, followed by adding a ligand medicament diluted in Opti-MEM to reach the corresponding concentration, and treating for 18 h. Various nuclear receptors and the corresponding reporter gene used are as follows: human FXR, EcRE-Luc; human PPARs (α, β, and γ), PPRE-Luc; human RORs (α, β and γ), Pcp2/RORE-Luc; human GR and PR, MMTV-Luc; human RARα and RARβ, and βRE-Luc.\nA ligand can be tested for the affinity to FXR since the ligand can induce FXR to recruit coregulators after binding to FXR."}, "FXR A291W": {"molecular_target": "T2, FXR A291W (Homo sapiens, UniProt Q96RI1, A305W)", "T2 construct": "the expression plasmid expressing full-length FXR (wt) or with mutations at the corresponding sites; expressed in transfected cells; host or cells: COS-7", "T2 sequence (Q96RI1 1-472 isoform Q96RI1-2 A291W)": "T1 sequence (Q96RI1 1-472 isoform Q96RI1-2) with A291W", "assay": "Reporter gene analysis with FXR point mutant A291W in COS-7 cells", "format": "cell-based", "details": "COS-7, EcRE reporter, FIG. 5", "description": "(2) The expression vector of FXR with point mutations at key binding sites is obtained. Quick-Change site-directed mutagenesis kit (Stratagene) is used for mutation, and the mutation reaction system is as follows: wild-type plasmid pCMX-FXR (50 ng) of 0.5 μl, mutation primer (100 μM) of 0.2 μl, pfu DNA polymerase (Invitrogen) (2 U) of 1 μl, 10 mM dNTPs of 1 μl, 10× PCR buffer of 5 μl, and ddH2O of 43 μl. PCR procedures are performed as follows: 94° C. for 2 min; 94° C. for 30 s, 55° C. for 1 min, 72° C. for 7 min, 15 cycles. 20 μl PCR product is digested with Dpn I […], followed by taking and transforming 2 μl digestion product into E. coli Trans 109 competent cells, ice bath for 30 min, and heat shock at 42° C. for 30 s. 250 μl of LB liquid medium without antibiotics is added, and preshaken at 225 rpm at 37° C. for 40 min, followed by taking 150 μl of products, spreading same on LB solid medium plates with ampicillin at 100 μg/ml and culturing them at 37° C. overnight. On the next day, the single colony is picked out and placed in 2 ml LB liquid medium containing ampicillin at 100 μg/ml, and cultured at 37° C. overnight. Plasmid extraction is performed on the shaken bacterial solution using Qiagen MiniPrep Plasmid Minipreparation Kit. The plasmid is identified by sequencing."}, "KK-Ay mice": {"system": "KK-Ay mice", "assay": "Mouse trial, KK-Ay diabetes and obesity model mice fed with high-fat diet", "format": "in vivo", "description": "In order to detect the efficacy of abamectin/avermectin, ivermectin and the derivative doramectin in the body of a diabetes and obesity mouse model, we choose diabetes and obesity mouse model mice, KK-Ay mice, as the experimental subject."}, "[1]": {"system": "wild-type mouse liver cells", "assay": "LPS induced inflammatory gene expression in wild-type mouse liver cells", "format": "cell-based", "details": "FIG. 19", "description": "Ivermectin and LPS are used to treat wild-type and FXR knockout mouse liver cells."}, "[2]": {"details": "i.p. daily 14 days, ivermectin/derivatives 1.3 mg/kg, GW4064 30 mg/kg"}}, "note": "Numbering of substitutions follows the chain as printed."}
{"molecule": "CC[C@H](C)[C@H]1O[C@]2(CC[C@@H]1C)C[C@@H]1C[C@@H](C/C=C(\\C)C(O[C@H]3C[C@H](OC)C(O[C@H]4C[C@H](OC)[C@@H](O)[C@H](C)O4)[C@H](C)O3)[C@@H](C)/C=C/C=C3\\CO[C@@H]4[C@H](O)C(C)=CC(C(=O)O1)[C@]34O)O2", "note": "(some centres unmarked) [ivermectin]", "values": [{"measurement": "transcriptional activity of FXR", "setting": "human FXR", "value": "can only specifically activate the transcriptional activity of FXR"}, {"measurement": "transcriptional activity of FXR mutant A291W", "setting": "FXR A291W", "value": "incapable of activating the transcriptional activity of FXR"}, {"measurement": "serum insulin level", "setting": "KK-Ay mice; 1.3 mg/kg i.p. daily, 14 days", "value": "significantly decreases"}, {"measurement": "serum saccharides (glucose) level", "setting": "KK-Ay mice; 1.3 mg/kg i.p. daily, 14 days", "value": "significantly decreases"}, {"measurement": "serum free fatty acids", "setting": "KK-Ay mice; i.p. daily 14 days, ivermectin 1.3 mg/kg, GW4064 30 mg/kg", "value": "significantly decrease"}, {"measurement": "serum cholesterol", "setting": "KK-Ay mice; [2]", "value": "significantly decrease"}, {"measurement": "serum triglycerides", "setting": "KK-Ay mice; [2]", "value": "significantly decrease"}, {"measurement": "expression of IL-6 induced by LPS", "setting": "[1]", "value": "clearly inhibit"}, {"measurement": "expression of MIP-1a induced by LPS", "setting": "[1]", "value": "clearly inhibit"}, {"measurement": "expression of TNFa induced by LPS", "setting": "[1]", "value": "clearly inhibit"}, {"measurement": "expression of iNOS induced by LPS", "setting": "[1]", "value": "clearly inhibit"}]}
